Reference: patent US20240051938A1, “SELECTIVE BRD4-DEGRADER MOLECULES” (Regents of the University of Minnesota, priority 2022, published 2024)
Like-named read-outs stand apart in the source and are kept apart here. Peptide text beside a SMILES is read from it. * marks the point of attachment. Cbz = O=C(OCc1ccccc1)*

Experiments:
BRD2 [1] = target: T1, BRD2 (Homo sapiens, UniProt P25440); settings: cited from earlier work
BRD3 [2] = target: T2, BRD3 (Homo sapiens, UniProt Q15059); settings: cited from earlier work
T2 sequence (Q15059 whole entry): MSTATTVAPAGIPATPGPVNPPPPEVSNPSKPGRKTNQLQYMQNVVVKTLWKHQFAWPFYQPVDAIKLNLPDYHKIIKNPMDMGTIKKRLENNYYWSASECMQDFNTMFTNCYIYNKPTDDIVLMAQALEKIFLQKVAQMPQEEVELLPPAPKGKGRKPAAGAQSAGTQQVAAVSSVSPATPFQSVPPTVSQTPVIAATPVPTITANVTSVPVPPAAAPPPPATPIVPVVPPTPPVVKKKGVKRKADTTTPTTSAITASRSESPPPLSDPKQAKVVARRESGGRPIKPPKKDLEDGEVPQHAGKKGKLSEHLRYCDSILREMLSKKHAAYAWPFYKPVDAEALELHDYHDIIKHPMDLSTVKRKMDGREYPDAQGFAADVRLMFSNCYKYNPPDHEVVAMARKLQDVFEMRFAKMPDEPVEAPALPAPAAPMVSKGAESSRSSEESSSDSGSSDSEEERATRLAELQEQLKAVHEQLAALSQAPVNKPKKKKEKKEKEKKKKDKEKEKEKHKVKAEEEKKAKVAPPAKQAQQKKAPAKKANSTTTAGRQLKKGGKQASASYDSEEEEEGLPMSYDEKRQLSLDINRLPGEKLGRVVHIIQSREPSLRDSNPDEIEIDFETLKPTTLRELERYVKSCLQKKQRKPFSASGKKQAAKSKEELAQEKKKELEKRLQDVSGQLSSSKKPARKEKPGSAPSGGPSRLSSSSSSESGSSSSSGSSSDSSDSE

MM.1S cells = assay: 72 hour Alamar blue cytotoxicity assay of MM.1S cells; assay type: cell-based
Experimental: FIG. 5: 72 hour Alamar blue cytotoxicity assay of MM.1S cells with compounds. Data reported as mean±SD of three independent trials of three replicates each.
Viability Assays: MM. 1 S cells were seeded in 96-well plates at approximately 20 000 cells per well (0.05 mL) and dosed with increasing compound concentrations in the presence of DMSO with three technical replicates per concentration. After incubation for 69 hours at 37° C., 10 μL of the Alamar Blue reagent (Invitrogen) was added to each well and the plates were incubated for 3 hours at 37° C. Fluorescence was determined using a Synergy plate reader (BioTek, Ex.: 560 nm, Em.: 590 nm) and dose-response data were normalized to untreated and blank wells containing 0.05% DMSO in cell culture media. Data analysis was performed using GraphPad Prism.

BRD4 [3] = target: T3, BRD4 (Homo sapiens, UniProt O60885); assay: Western blot BRD4 degradation in MV411 cells; assay type: cell-based; set-up: endogenous in cells; settings: 6 hours, N = 1
cMyc = assay: Western blot cMyc expression in MM.1S cells; assay type: cell-based; settings: compared with previously reported BRD4 degraders
Experimental: (§1) Western Blotting: MM.1S cells were seeded in 12-well plates at a density of 4×10^6 cells per well and treated with compounds for indicated times. Cells were transferred to 2 mL microcentrifuge tubes and harvested by low-speed centrifugation at 500×g. for 5 minutes. The well was rinsed, and the cell pellet washed twice with ice-cold PBS with centrifuging. The supernatant was carefully decanted, and the cell pellet was resuspended for lysis in 100 μL of RIPA buffer (ThermoFisher Scientific) supplemented with 1× cOmplete Mini Protease (Roche) and stored on ice for 10 minutes. After high-speed centrifugation (10 min at 10,000 X g.), protein concentrations were determined by the BCA assay (ThermoFisher Scientific) and normalized by total protein content.

BRD2 [4] = target: T1, BRD2; assay: Western blot BRD2 levels in MM.1S cells; assay type: cell-based
Experimental: (§2) FIG. 4A-4D: Degradation of BRD4 in MM.1S cells. (A) Representative blots for degradation of BRD4 after 24-hour treatment. (B) Quantified densitometry for three biological replicates of blots from (A). (C) Time-course study of BRD4 degradation by dBRD4-BD1. (D) Rescue of BRD4 degradation using pan-BD1, proteasome and neddylation inhibitors, but not pan-BD2 inhibitor, iBET-BD2.
as §1

9xHis-BRD4-BD1 = target: T4, 9xHis-BRD4-BD1 (Homo sapiens, UniProt O60885); assay: AlphaScreen binding assay with His9-tagged BRD4-BD1 (1% DMSO); settings: 1% v/v DMSO; mean of three independent trials in duplicate; read-out: BRD4-BD1 IC50 (apparent binding)
T4 construct: 30 nM for His9-tagged BRD4-BD1 bromodomain and 50 nM for the biotinylated peptide were used; made in house
Experimental: (B) Alphascreen binding assay with 9xHis-BRD4-BD1, reported as mean±SD of three independent trials performed in duplicate.
The AlphaScreen assay procedure for BRD4-BD1 bromodomain was adapted from the manufacturers protocol (PerkinElmer, USA). […] The biotinylated histone H4 KAc5,8,12,16 peptide was purchased from EpiCypher, with the sequence: Ac-SGRGK(Ac)GGK(Ac)GLGK(Ac)G-GAK(Ac)RHRKVLR-Peg(Biot). All reagents were diluted in the assay buffer (50 mM HEPES-Na+(ChemImpex), 100 mM NaCl (SigmaAldrich), 0.05% CHAPS (RPI), 0.1% BSA (SigmaAldrich), pH 7.4). The final assay concentrations (after the addition of all assay components) of 30 nM for His9-tagged BRD4-BD1 bromodomain and 50 nM for the biotinylated peptide were used. 3-fold serial dilutions were prepared with varying concentrations of the compounds and a fixed protein concentration, keeping the final DMSO concentration at 1% v/v. […] This was followed by the addition of 5 μL of the biotinylated peptide. 5 μL of nickel chelate acceptor beads and 5 μL of streptavidin donor beads were added to each well under low light conditions (<100 lux), to a final concentration of 20 μg/mL. The plate was sealed and incubated at room temperature in the dark for 1 hour. It was then read in AlphaScreen mode using a Tecan Spark plate reader. Each compound was run in two technical replicates, with at least three biological replicates.

BRD3 [5] = target: T2, BRD3; assay: Western blot BRD3 levels in MM.1S cells; assay type: cell-based
Experimental: as §2, §1

p38a kinase = target: T5, p38a kinase (Homo sapiens, UniProt Q16539); assay: Western blot p38a levels in MM.1S cells; assay type: cell-based; settings: 24-hour time-point or time-course study at 5 μM
T5 construct: endogenous in cells; host or cells: MM.1S
T5 sequence (Q16539 whole entry): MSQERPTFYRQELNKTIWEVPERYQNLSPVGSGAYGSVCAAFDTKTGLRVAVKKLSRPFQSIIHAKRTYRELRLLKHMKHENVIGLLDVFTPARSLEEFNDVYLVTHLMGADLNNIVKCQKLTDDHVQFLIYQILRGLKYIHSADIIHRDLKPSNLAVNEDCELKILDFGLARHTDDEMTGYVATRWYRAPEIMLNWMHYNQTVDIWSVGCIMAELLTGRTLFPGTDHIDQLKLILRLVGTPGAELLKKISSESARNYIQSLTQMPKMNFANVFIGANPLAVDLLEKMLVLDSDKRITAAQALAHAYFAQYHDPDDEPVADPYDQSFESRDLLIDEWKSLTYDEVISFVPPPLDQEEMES
Experimental: as §2, §1

BRD4 [6] = target: BRD4 (Homo sapiens, UniProt O60885+Q96SW2); assay: TR-FRET ternary-complex formation; assay type: biochemical
Chain of BRD4 (Homo sapiens, UniProt O60885+Q96SW2) (Q96SW2 whole entry, one chain of several): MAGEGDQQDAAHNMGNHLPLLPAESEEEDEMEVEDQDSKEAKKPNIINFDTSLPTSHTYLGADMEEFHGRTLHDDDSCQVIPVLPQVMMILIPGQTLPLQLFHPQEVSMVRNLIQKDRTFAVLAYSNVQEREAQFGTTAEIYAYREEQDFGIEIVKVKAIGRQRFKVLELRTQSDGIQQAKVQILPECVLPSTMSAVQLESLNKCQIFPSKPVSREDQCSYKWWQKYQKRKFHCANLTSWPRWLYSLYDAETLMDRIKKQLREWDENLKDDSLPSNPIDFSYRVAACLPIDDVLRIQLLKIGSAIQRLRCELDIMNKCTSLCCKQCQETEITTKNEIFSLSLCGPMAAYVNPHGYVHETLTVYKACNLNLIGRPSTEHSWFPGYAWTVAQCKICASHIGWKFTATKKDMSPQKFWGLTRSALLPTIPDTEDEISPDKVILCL

[7] = Solubility observed in AlphaScreen assay; settings: required increased DMSO (1% v/v) in assay
BRD4 [8] = target: T3, BRD4; assay: Western blot BRD4 degradation in MM.1S cells; assay type: cell-based; set-up: endogenous in cells
From the text: as §2
The mixed suspension/adherent cells were subcultured at a 1:10 dilution by decanting suspended cells and dissociating adherent cells from plates in 0.25% trypsin/EDTA (Gibco) with 2 min incubation times. Cell-line authenticity was verified using the short-tandem-repeat (STR)-profiling service provided by ATCC.
as §1

BRD4 [9] = target: T3, BRD4; settings: BRD4 degradation, 6 hours, N = 1; for DC50: read-out: HEK293 (DC50)
Experimental: (§3) HEK293T cells were grown in a humidified 5% CO2 environment at 37° C. Cells were cultured in DMEM media (Corning) supplemented with 10% fetal-bovine serum (FBS, Cellgro), penicillin (50 IU/mL, Cellgro) and streptomycin (50 μg/mL, Cellgro). Once the adherent cells reached 85% confluency, the media was removed, and cells were treated with 0.25% trypsin/EDTA for 2 min. The trypsin was then neutralized, and the cells were pelleted by centrifugation (4000 g, 5 min) before resuspending in new media and subcultured at a 1:20 ratio.
(§4) HEK293T cells were seeded at 500,000 cells/well in a TC-treated 6-well plate and incubated in a 5% CO2 environment at 37° C. for 18 hours. […] Cells were dosed with compound for incubated times. Media was then removed and the cells were washed gently with cold PBS. To the plate was added 100 μL of RIPA buffer supplemented with 1X Roche cOmplete Mini protease inhibitor cocktail. Using a cell scraper, the cells were removed from the plate into the buffer. The cell lysate was then centrifuged at 14,000 rpm at 4° C. for 5 minutes before lysates were normalized by total soluble protein concentration using BCA protein assay kit (Peirce). Normalized samples were mixed with 4× NuPAGE LDS loading buffer (Invitrogen) and 10× reducing agent (Invitrogen), and heated at 95° C. for 10 minutes before separation on 3-8% Tris-Acetate gels. Proteins were transferred to PVDF membranes for 12 minutes on a BioRad Trans-Blot Turbo. Membranes were dried, cut, blocked in TBS-T containing 5% nonfat dry milk, and subsequently incubated with TB S-T containing 5% nonfat dry milk for 16 hours at 4° C. with an additional 2 hours at ambient temperature, with primary antibodies at dilutions listed below. After the membranes were washed five times with TBS-T, they were incubated with secondary antibodies for 2 h. at room temperature. Membranes were washed five times in TBS-T and treated with SuperSignal West Dura substrates (Thermo) for 1 minute and imaged using a LiCor Odyssey Fc. Membranes were then stained for total protein levels with SimplyBlue SafeStain (Invitrogen, Ref 465034) to confirm transfer and loading homogeneity.
(§5) The DCmax and DC50 values were determined via densitometry analysis from western blot data. Curve fitting analysis was conducted via non-linear regression using Graphpad PRISM.

BRD4 [10] = target: T3, BRD4; assay: Rescue of dBRD4-BD1-induced BRD4 degradation in MM.1S cells (competition experiments); assay type: cell-based; set-up: endogenous in cells; settings: competition with dBRD4-BD1
Experimental: Western Blotting: MM.1S cells were seeded in 12-well plates at a density of 4×10^6 cells per well and treated with compounds for indicated times. Cells were transferred to 2 mL microcentrifuge tubes and harvested by low-speed centrifugation at 500×g. for 5 minutes. The well was rinsed, and the cell pellet washed twice with ice-cold PBS with centrifuging. The supernatant was carefully decanted, and the cell pellet was resuspended for lysis in 100 μL of RIPA buffer (ThermoFisher Scientific) supplemented with 1× cOmplete Mini Protease (Roche) and stored on ice for 10 minutes. After high-speed centrifugation (10 min at 10,000 X g.), protein concentrations were determined by the BCA assay (ThermoFisher Scientific) and normalized by total protein content. Normalized samples were mixed with 4× NuPAGE LDS loading buffer (Invitrogen) and 10× reducing agent (Invitrogen), and heated at 95° C. for 10 minutes before separation on 3-8% Tris-Acetate gels. Proteins were transferred to PVDF membranes for 12 minutes on a BioRad Trans-Blot Turbo. Membranes were dried, blocked in TBS-T containing 5% nonfat dry milk, and subsequently incubated with TBS-T containing 5% nonfat dry milk for 4 hours at room temperature, or 16 hours at 4° C., with primary antibodies at dilutions listed below. After the membranes were washed five times with TBS-T, they were incubated with secondary antibodies for 2 hours. at room temperature. Membranes were washed five times in TBS-T and treated with SuperSignal West Dura substrates (Thermo) for 1 minute and imaged using a LiCor Odyssey Fc.

BRD4 [11] = target: T3, BRD4; assay: cell-based; settings: HEK293, read-out: HEK293 (Dmax)
Experimental: as §3, §4, §5

BRD4 [12] = target: T3, BRD4; assay: Competition of MZ1-induced BRD4 degradation with pan-BD1 or pan-BD2 inhibitors; assay type: cell-based; set-up: endogenous in cells; host or cells: HEK293T; settings: competition with pan-BET degrader MZ1

T1 sequence (P25440 whole entry): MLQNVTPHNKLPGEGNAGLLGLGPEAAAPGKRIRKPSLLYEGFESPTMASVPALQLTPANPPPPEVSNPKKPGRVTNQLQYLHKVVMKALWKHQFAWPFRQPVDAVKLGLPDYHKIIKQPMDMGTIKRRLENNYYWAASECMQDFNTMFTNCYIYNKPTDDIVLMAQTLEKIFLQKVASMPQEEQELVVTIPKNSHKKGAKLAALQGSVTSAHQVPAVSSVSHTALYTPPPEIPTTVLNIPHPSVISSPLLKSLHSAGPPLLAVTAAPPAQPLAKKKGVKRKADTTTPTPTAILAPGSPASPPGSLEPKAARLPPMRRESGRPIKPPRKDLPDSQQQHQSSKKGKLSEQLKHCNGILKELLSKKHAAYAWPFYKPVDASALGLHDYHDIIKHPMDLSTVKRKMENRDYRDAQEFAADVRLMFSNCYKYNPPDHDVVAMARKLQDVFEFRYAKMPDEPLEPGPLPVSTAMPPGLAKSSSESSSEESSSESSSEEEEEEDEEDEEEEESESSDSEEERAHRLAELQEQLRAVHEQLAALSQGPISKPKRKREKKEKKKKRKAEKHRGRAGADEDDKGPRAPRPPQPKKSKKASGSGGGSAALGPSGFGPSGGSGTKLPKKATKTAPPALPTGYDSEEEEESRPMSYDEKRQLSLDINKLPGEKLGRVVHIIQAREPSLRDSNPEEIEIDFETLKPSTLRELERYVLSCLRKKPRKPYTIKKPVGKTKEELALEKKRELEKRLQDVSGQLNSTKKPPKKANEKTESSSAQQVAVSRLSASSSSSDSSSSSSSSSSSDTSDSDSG

COC(=O)C[C@@H]1N=C(c2ccc(Cl)cc2)c2c(sc(C(=O)NCCCCCNc3cccc4c3C(=O)N(C3CCC(=O)NC3=O)C4=O)c2C)-n2c(C)nnc21 (some centres unmarked) [ZXH-3-26]
concentration of BRD2 upon BRD4 degradation (BRD2 [1]): remain unchanged
concentration of BRD3 upon BRD4 degradation (BRD3 [2]): remain unchanged

CC(=O)N[C@H](C(=O)N1C[C@H](O)C[C@H]1C(=O)NCc1ccc(-c2scnc2C)cc1)C(C)(C)SCCCCCCNC(=O)C[C@@H]1N=C(c2ccc(Cl)cc2)c2c(sc(C)c2C)-n2c(C)nnc21 [AT1]
concentration of BRD2 upon BRD4 degradation (BRD2 [1]): remain unchanged
concentration of BRD3 upon BRD4 degradation (BRD3 [2]): remain unchanged

Cc1ccc(C(C)C)cc1Oc1nccc(-c2c(-c3ccc(C(F)(F)F)cc3)ncn2C2CCN(CCOCCOCCNC(=O)COc3cccc4c3C(=O)N(C3CCC(=O)NC3=O)C4=O)CC2)n1 (centres unmarked) [dBRD4-BD1]
cytotoxicity (MM.1S cells): lower observed cytotoxicity
DC50 (BRD4 [3]): 14 nM
MV411 (Dmax) (BRD4 [3]): 85%
effect on cMyc expression (cMyc): weaker effect on cMyc expression
BRD2 level at concentrations where BRD4 was degraded (BRD2 [4]): upregulated
degradation of BRD2 (BRD2 [4]; 24-hour treatment): not observed
IC50 (9xHis-BRD4-BD1): 1360 nM
BRD3 level at concentrations where BRD4 was degraded (BRD3 [5]): upregulated
degradation of BRD3 (BRD3 [5]; 24-hour treatment): not observed
degradation of p38a (p38a kinase): not observed
ternary-complex formation by TR-FRET (BRD4 [6]): moderate ternary-complex formation
solubility [7]: poor solubility
BRD4 degradation Dmax (BRD4 [8]; 24-hour treatment): 23%
DC50 (BRD4 [8]; 24-hour treatment): 280 nM
concentration above which BRD4 degradation diminished (hook effect) (BRD4 [8]; 24-hour treatment): > 5 µM
time to maximal BRD4 degradation (BRD4 [8]; time-course study at 5 μM): 8 h
HEK293 (Dmax) (BRD4 [9]): 100%
DC50 (BRD4 [9]): 500 nM

CC(C)C[C@@H](C=O)NC(=O)[C@H](CC(C)C)NC(=O)[C@H](CC(C)C)NC(=O)OCc1ccccc1 [MG-132] (Cbz-Leu-Leu-Leu-aldehyde)
rescue of BRD4 degradation by dBRD4-BD1 (BRD4 [10]): rescue of BRD4 degradation was observed

Cc1ccc(C(C)C)cc1Oc1nccc(-c2c(-c3ccc(C(F)(F)F)cc3)ncn2C2CCN(CCNC(=O)COc3cccc4c3C(=O)N(C3CCC(=O)NC3=O)C4=O)CC2)n1 (centres unmarked) [Example 6]
Dmax (BRD4 [11]): 95%
DC50 (BRD4 [9]): 810 nM

NS(=O)(=O)OC[C@@H]1C[C@@H](n2ccc3c(N[C@H]4CCc5ccccc54)ncnc32)C[C@@H]1O [MLN4924]
rescue of BRD4 degradation by dBRD4-BD1 (BRD4 [10]): rescue of BRD4 degradation was observed

Cc1ccc(C(C)C)cc1Oc1nccc(-c2c(-c3ccc(C(F)(F)F)cc3)ncn2C2CCN(CCOCCOCCNC(=O)CNc3cccc4c3C(=O)N(C3CCC(=O)NC3=O)C4=O)CC2)n1 (centres unmarked) [Example 5]
Dmax (BRD4 [11]): 60%
DC50 (BRD4 [9]): 290 nM

Cc1ccc(C(C)C)cc1Oc1nccc(-c2c(-c3ccc(C(F)(F)F)cc3)ncn2C2CCN(CCOCCOCCNC(=O)CN(C)c3cccc4c3C(=O)N(C3CCC(=O)NC3=O)C4=O)CC2)n1 (centres unmarked) [Example 4]
Dmax (BRD4 [11]): 84%
DC50 (BRD4 [9]): 105 nM

CC(=O)Nc1c(F)cc(C(=O)N[C@H]2CC[C@H](O)CC2)cc1O[C@@H](C)c1ccccc1 [iBET-BD2]
prevention of MZ1-induced BRD4 degradation by competitor (BRD4 [12]): neither BD1 nor BD2 inhibition was able to prevent BRD4 degradation
rescue of BRD4 degradation by dBRD4-BD1 (BRD4 [10]): no effect
